The results in this text go back to ChEMBL document CHEMBL1201862, “PubChem BioAssay data set” (2004).

Data set [1] is described as follows: inhibitors of firefly luciferase expression or activity, dose response, H4 neuroglioma cells, luminescence (AID 1990). Type of data set: functional, cell-based.
Data set [2] is described as follows: Luminescence Cell-Based Dose Response HTS to Identify Inhibitors of 5'UTR Stem-Loop Driven Prion Protein mRNA Translation in H4 Neuroglioblastoma Cells. [Related pubchem assays: 1827 (Project Summary), 1813 (Primary HTS)]. Type of data set: functional.
The nature of data set [3]: inhibitors of SNCA 5'UTR-driven reporter translation, confirmation, H4 neuroglioma cells, luminescence (AID 1988). Type of data set: functional, cell-based.
For data set [4], the target named is T1, Rac GTPase-activating protein 1 (Homo sapiens, UniProt Q9H0H5).
T1 sequence (Q9H0H5 whole entry): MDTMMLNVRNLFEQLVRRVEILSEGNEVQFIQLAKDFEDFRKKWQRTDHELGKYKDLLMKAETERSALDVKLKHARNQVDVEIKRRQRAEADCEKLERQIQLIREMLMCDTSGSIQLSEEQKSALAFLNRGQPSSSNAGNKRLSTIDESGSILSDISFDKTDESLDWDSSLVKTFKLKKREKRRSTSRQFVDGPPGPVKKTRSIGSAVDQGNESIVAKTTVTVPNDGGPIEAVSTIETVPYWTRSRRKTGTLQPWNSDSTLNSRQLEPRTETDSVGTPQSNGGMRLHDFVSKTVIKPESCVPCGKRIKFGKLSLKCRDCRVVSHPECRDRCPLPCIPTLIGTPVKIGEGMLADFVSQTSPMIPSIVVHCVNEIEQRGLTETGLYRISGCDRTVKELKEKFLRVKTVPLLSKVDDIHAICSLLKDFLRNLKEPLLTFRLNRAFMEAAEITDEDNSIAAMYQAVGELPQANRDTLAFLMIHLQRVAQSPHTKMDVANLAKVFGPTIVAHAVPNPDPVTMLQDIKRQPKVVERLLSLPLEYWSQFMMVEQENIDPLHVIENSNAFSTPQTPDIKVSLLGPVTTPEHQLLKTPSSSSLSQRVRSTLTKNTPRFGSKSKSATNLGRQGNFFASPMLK
Briefly: MgcRacGAP GTPase-activating activity inhibitors, confirmation, biochemical, ADP Hunter fluorescence, primary and confirmatory (AID 624330). Type of data set: functional.

The target of another data set is Cytochrome P450 2C19 (Homo sapiens, UniProt P33261). Briefly: Cytochrome panel assay with activity outcomes. Panel member name: p450-cyp2c19 Compounds with AC50 equal or less than 10 uM are considered active. Type of data set: functional.
Chain of Cytochrome P450 2C19 (P33261 whole entry): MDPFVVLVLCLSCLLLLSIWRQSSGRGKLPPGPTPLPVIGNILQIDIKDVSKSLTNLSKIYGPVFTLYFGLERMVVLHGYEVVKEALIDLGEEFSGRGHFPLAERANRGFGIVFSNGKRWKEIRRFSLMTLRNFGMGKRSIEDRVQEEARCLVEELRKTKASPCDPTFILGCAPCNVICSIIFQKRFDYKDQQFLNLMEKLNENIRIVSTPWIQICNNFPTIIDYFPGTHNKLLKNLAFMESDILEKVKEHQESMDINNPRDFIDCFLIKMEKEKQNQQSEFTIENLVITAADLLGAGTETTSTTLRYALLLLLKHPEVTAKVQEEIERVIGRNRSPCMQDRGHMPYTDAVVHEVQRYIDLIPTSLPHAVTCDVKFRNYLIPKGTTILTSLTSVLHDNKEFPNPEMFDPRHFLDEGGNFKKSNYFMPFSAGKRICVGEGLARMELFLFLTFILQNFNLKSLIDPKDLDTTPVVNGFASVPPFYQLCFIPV
In a further data set the target is Cytochrome P450 2C9 (Homo sapiens, UniProt P11712).
Chain of Cytochrome P450 2C9 (P11712 whole entry): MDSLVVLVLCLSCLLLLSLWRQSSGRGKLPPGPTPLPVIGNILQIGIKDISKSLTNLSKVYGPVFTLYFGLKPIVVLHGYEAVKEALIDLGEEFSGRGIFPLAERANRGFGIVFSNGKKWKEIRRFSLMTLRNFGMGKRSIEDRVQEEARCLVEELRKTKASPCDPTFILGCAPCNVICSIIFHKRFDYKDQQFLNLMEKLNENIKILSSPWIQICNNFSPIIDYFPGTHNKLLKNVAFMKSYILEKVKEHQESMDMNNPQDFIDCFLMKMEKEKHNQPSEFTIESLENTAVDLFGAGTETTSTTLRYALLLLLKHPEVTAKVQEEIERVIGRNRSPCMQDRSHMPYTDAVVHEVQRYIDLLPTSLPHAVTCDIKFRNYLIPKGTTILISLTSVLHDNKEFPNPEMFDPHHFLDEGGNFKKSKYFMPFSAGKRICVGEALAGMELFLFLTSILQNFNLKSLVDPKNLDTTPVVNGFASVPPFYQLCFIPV
A further data set relates to INS1. Briefly: beta cell apoptosis inhibitors, cytokine rescue, dose response, luminescence, retest (AID 449756).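 Note: cell death triggered by IL-1 beta plus TNF-alpha plus IFN-gamma mixture; protective hits raise ATP signal compared with cytokine alone wells.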 Type of data set: functional, cell-based. To be noted: Rattus norvegicus.
Data set [5] in a line: HEp-2 cell cytotoxicity, dose response, cytotoxicity control for RSV inhibitor project, HTS (AID 2410). Type of data set: functional. The note with it: human respiratory syncytial virus.
Data set [6] is described as follows: Luminescence Cell-Based Dose Retest to Confirm Inhibitors of Cancer Stem Cells. [Related pubchem assays (depositor defined):AID2717, AID2721]. Type of data set: functional. The note with it: Homo sapiens.
Data set [7] is described as follows: NIH-3T3 fibroblast cytotoxicity, dose response, cytotoxicity control, cell-based, fluorescence, Alamar Blue, secondary assay (AID 2327).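 Note: NIH-3T3 mouse fibroblasts cultured with fluconazole at 8 µg/mL.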 Type of data set: functional. In general terms: Resazurin is reduced to fluorescent resorufin, in cell work by metabolically active cells.
Data set [8] in a line: inhibitors of intracellular T. cruzi replication, confirmation, NIH3T3 host cells, beta-gal luminescence (AID 2044).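 Note: intracellular parasites grown in NIH/3T3 mouse fibroblasts as host cells; luminescent beta-galactosidase reporter signal from transgenic T. cruzi replicating inside host cells; inhibitors lower the luminescence signal.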 Type of data set: functional, cell-based.
Data set [9] can be described thus: cytotoxicity toward NIH3T3 fibroblasts, dose response, counter-screen, cell-based, ATP luminescence, mouse fibroblasts (AID 2010).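 Note: cells exposed to compound for about 90 hours before reading.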 Type of data set: functional.
Data set [10] is described as follows: C. albicans growth with fluconazole, confirmation, fluorescence, retest (AID 2467). Type of data set: functional, cell-based.
The next data set addresses Paired box protein Pax-8 (Homo sapiens, UniProt Q06710). Briefly: inhibitors of PAX8-driven TPO luciferase reporter, dose response, RMG-I cells, cherry-pick (AID 687027).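 Note: luciferase reporter driven by Pax8 target thyroperoxidase promoter measured by SteadyGlo luminescence.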 Type of data set: functional, cell-based. On the technique in general: Reporter assays use an easily measured gene product as a stand-in for the process of interest.

Each structure is given as a SMILES string. The source made the active and inactive calls.

A word on the EC50: it is the concentration at which the effect is half-maximal. Broadly, the IC50 is the concentration needed to halve the response being measured. By AC50 is commonly meant the concentration giving half of the maximal activity seen. By CC50 is commonly meant the concentration that lowers cell viability or growth by half.

Chain of Paired box protein Pax-8 (Q06710 whole entry): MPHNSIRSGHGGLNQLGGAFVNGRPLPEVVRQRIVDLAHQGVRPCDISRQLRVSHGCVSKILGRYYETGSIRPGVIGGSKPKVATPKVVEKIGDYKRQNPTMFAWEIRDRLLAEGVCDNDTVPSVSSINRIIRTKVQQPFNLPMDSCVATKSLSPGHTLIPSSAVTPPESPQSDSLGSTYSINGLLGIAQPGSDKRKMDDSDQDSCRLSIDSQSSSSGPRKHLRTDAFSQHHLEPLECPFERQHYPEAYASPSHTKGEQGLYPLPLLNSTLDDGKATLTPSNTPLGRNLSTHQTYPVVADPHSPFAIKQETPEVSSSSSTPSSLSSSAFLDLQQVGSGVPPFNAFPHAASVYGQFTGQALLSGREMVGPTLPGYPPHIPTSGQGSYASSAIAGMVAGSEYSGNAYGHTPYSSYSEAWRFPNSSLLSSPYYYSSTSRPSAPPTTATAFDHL

For the compound `COc1cccc(C(=O)Nc2cccc(OCC(=O)O)c2)c1`, the EC50 in data set [1] is > 120 µM (not active); in data set [2] it was > 120 µM (not active); in data set [3] it was 25.9 µM (active).

For `O=C(Nc1cc(Br)c(O)c(Br)c1)c1cccc(NC(=O)c2ccco2)c1`, the IC50 in data set [4] is 95.2 µM (active).

In the case of `COC(=O)C1=C(CSc2nc3ccccc3o2)NC(=O)NC1c1cc(C)ccc1C` (configuration not stated), the half-maximal effective concentration (EC50) in data set [1], in data set [2] and in [3] was > 120 µM (not active) in each case.

Turning to `Cc1cccc(NC(=O)c2ccccc2OCC(=O)c2ccc(F)cc2)c1`, the EC50 in [1], in data set [2] and in [3] was > 120 µM (not active) in each case.

Take `CCCCN1C(=O)/C(=C/c2ccc(N(C)C)cc2)C(=O)N(Cc2ccco2)C1=O`: the AC50 was 31.6 µM (inconclusive) at Cytochrome P450 2C19 (read-out: AC50) and 35.5 µM (inconclusive) on Cytochrome P450 2C9.

Regarding `CN(C)S(=O)(=O)c1cccc(NC2=NN=C(c3ccccc3)CS2)c1`, the AC50 in the data set on INS1 was 7.27 µM (active).

Consider `COc1cccc(Nc2nc(-c3cccs3)nc3ccccc23)c1`, for which the CC50 in [5] is 13.9 µM (active). Besides, the AC50 in data set [6] is 3.42 µM (active).

Turning to `O=C(NNC(=O)c1ccccc1O)c1ccc(Cl)cc1`, the AC50 on Cytochrome P450 2C9 was 20 µM (inconclusive).

`CN(C)S(=O)(=O)c1ccc(N2C(=O)CC2(/C=C/c2ccccc2)C(=O)NC2CCCC2)cc1` (configuration not stated): the EC50 in [1], in data set [2] and in data set [3] was > 120 µM (not active) each time.

Regarding `COc1ccccc1N1CCN(S(=O)(=O)CCNC(=O)c2cc(OC)c(OC)c(OC)c2)CC1`, the EC50 in [1] was > 120 µM (not active); in data set [2], > 120 µM (not active); in [3], 10.6 µM (active).

With `Cn1cnc2cc(NCc3ccccc3O)ccc21`, the IC50 in data set [4] is 93.9 µM (active).

Take `O=C(NC1CC1)c1ccc(-c2nc3ccccc3s2)s1`: the EC50 in data set [1] is 4.13 µM (active); in [2], 7.52 µM (active); in [3], 13.6 µM (inconclusive).

Turning to `Cc1ccc(S(=O)(=O)[N-]C2=C([n+]3ccn(CCC(C)C)c3)C(=O)c3ccccc3C2=O)cc1`, the AC50 with INS1 was 5.8 µM (active).

For `O=c1c2sc3ccccc3c2[nH]c(=S)n1CCN1CCOCC1`, the IC50 in data set [4] was 91.3 µM (active).

As for `CCC1CSC(Nc2ccc(C(=O)/C=C/c3ccc(Br)cc3)cc2)=N1` (configuration not stated), the AC50 in [6] is 2 µM (active).

Regarding `COc1ccc(CCNCCN2CCOCC2)cc1`, the IC50 in data set [4] was 77.1 µM (active).

In the case of `Cc1nc(S(=O)(=O)NC2CCCCC2)c(C#N)c(C)c1Cl`, the AC50 on Cytochrome P450 2C9 was 28.2 µM (inconclusive).

As to `O=[N+]([O-])c1ccc(CSCc2ccc(Cl)cc2)cc1`, on Cytochrome P450 2C9, the AC50 was 7.94 µM (inconclusive).

For the compound `CCN1CCN(C(=O)c2ccc(CSc3ccc(C)cc3)cc2)CC1`, the EC50 in [7] is > 150 µM (inactive). The AC50 in data set [6] is < 0.16 µM (active).

Turning to `Cc1c(C(=O)NCc2ccc3c(c2)OCO3)oc2ccc(S(=O)(=O)N3CCCCCC3)cc12`, the EC50 in data set [1] was 14.9 µM (active); in [2] it was 15 µM (active); in data set [3], 25.5 µM (active); in [8], 0.775 µM (active); in [9], > 60 µM (not active).

`CN(C)N1C(N)=C(C#N)C(c2cccc3ccccc23)C2=C1CC(c1ccccc1)CC2=O` (configuration not stated): the AC50 in [6] was 1.15 µM (active).

For `Cc1ccccc1-[n+]1c(-c2ccccc2)cc(-c2ccccc2)cc1-c1ccccc1.[O-][Cl+3]([O-])([O-])[O-]`, the EC50 in data set [7] was 36.3 µM (active); in [10] it was 0.21 µM (active). Also, the half-maximal activity concentration (AC50) with INS1 was 2.26 µM (active).

For `CN(Cc1c(F)cccc1Cl)C(=O)c1cc2ccccc2o1`, in the data set on INS1, the AC50 is > 260 µM (inactive).

Take `CCOc1ccccc1CN1CCC(N2CCOCC2)CC1`: the IC50 in data set [4] is 83 µM (active).

On to `C=CC[n+]1c(/C=C/c2ccc(OC(C)=O)c(OC)c2)ccc2ccccc21`, for which the half-maximal inhibitory concentration (IC50) in data set [4] was 61.2 µM (active).

With `CC(Cc1ccccc1)NC(=O)CSc1nc2nc3c(cc2c(=O)n1-c1ccccc1)COC(C)(C)C3` (configuration not stated), the AC50 is 35.5 µM (inconclusive) on Cytochrome P450 2C19 (read-out: AC50) and 15.8 µM (inconclusive) at Cytochrome P450 2C9.

Consider `c1ccc(CSc2nnc(-c3sccc3-n3cccc3)o2)cc1`, for which the AC50 on Cytochrome P450 2C9 was 39.8 µM (inconclusive).

In the case of `COc1ccc(N2CCCC2)c(NC(=O)COc2ccccc2Cl)c1`, the EC50 was 13.9 µM (active) in data set [1], > 120 µM (not active) in [2] and 13.1 µM (active) in data set [3].

Regarding `Cn1c(=S)c2nc(SCCN3CCCC3)[nH]c2n(C)c1=O`, on Cytochrome P450 2C9, the AC50 was 3.16 µM (inconclusive).

Regarding `Nc1cc2c(nc3c4ccccc4c(N)cc3[n+]2-c2cccc3ccccc23)c2ccccc12.Nc1cc2c(nc3c4ccccc4ccc3[n+]2-c2cccc3ccccc23)c2ccccc12`, the AC50 on Cytochrome P450 2C9 is 2.51 µM (inconclusive).

For `Cc1ccc2cc(CCNC(=O)c3ccc(Br)o3)c(O)nc2c1`, on Cytochrome P450 2C9, the AC50 is 10 µM (inconclusive).

As to `COc1cc2cc(-c3ccc(O)cc3O)nc(C)c2cc1OC`, in data set [4], the IC50 is 29.9 µM (active).

Take `Nc1nc(-c2ccc(NC(=O)c3ccco3)cc2)cs1`: the EC50 was 11.7 µM (inconclusive) in data set [2] and 8.2 µM (inconclusive) in [3].

With `CC(C)c1nnc(-c2ccc(Cl)cc2)c(N(C)C)n1`, the AC50 on Cytochrome P450 2C9 is 10 µM (inconclusive).

With `O=c1[nH]c(=O)n(Cc2ccco2)c2c1C(C(F)(F)F)(C(F)(F)F)NC(c1ccc(F)cc1)=N2`, the half-maximal activity concentration (AC50) in the data set with INS1 is 3.11 µM (active).

`CN(C)CCCN(C(=O)COc1ccc(Cl)cc1)c1nc2cc3c(cc2s1)OCO3`: the AC50 in the data set on INS1 is 14.2 µM (active).

For `COc1ccc(/C=C/c2nc3cc(-c4ccccc4)ccc3o2)cc1O`, in data set [5], the half-maximal cytotoxic concentration (CC50) was 36.3 µM (active). For the same compound, the AC50 in [6] is 4.06 µM (active).

`CNc1oc(-c2ccc(Cl)cc2)nc1P(=O)(c1ccccc1)c1ccccc1`: the AC50 in [6] is 7.13 µM (active).

As for `O=C(COCc1cc(-c2ccc3c(c2)OCO3)on1)N1CCN(c2cccc(C(F)(F)F)c2)CC1`, the AC50 in data set [6] was 1.51 µM (active).

In the case of `CCCCCSc1nnc(C)c(O)n1`, the AC50 was 39.8 µM (inconclusive) on Cytochrome P450 2C19 (read-out: AC50) and 8.91 µM (inconclusive) at Cytochrome P450 2C9.

On to `CCCCN1C(=O)C(NC(=O)c2cccnc2)(C(F)(F)F)C2=C1CC(C)(C)CC2=O` (configuration not stated), for which the AC50 result was “inconclusive” on Cytochrome P450 2C19 and 35.5 µM (inconclusive) at Cytochrome P450 2C9.

For `Cc1cccc(C(=O)NN(C)c2nc(-c3ccccc3)nnc2C(F)(F)F)c1`, the AC50 at Cytochrome P450 2C19 (read-out: AC50) is 0.708 µM (inconclusive); at Cytochrome P450 2C9, 0.316 µM (inconclusive).

As for `COc1ccc(NC(=O)c2cc3ccc(O)cc3o/c2=N\O)cc1`, in [6], the AC50 is 5.22 µM (active). In data set [4], the IC50 was 42 µM (active).

As to `C[C@@H]1CN([C@@H](C)CO)C(=O)c2cc(NC(=O)NC3CCCCC3)ccc2O[C@@H](C)CCCCO[C@H]1CN(C)Cc1ccc(C(F)(F)F)cc1`, the AC50 at Paired box protein Pax-8 was 11.5 µM (active).

Consider `C[C@@H]1CN([C@H](C)CO)C(=O)c2c(c3ccccc3n2C)-c2ccccc2CO[C@@H]1CN(C)C`, for which, on Paired box protein Pax-8, the AC50 is 66.1 µM (active).

Turning to `C[C@@H]1CN([C@H](C)CO)C(=O)c2cc(NC(=O)Nc3ccc(F)cc3)ccc2O[C@@H](C)CCCCO[C@H]1CN(C)C(=O)Nc1ccc(F)cc1`, the AC50 at Paired box protein Pax-8 is 10.8 µM (active).

Consider `C/C(=N\NC(=O)c1ccc(NS(=O)(=O)c2cccs2)cc1)c1ccccn1`, for which the AC50 in the data set on INS1 was 3.08 µM (active).

As to `C/C(=C\C(=O)c1ccccc1)Nc1ccc(O)cc1`, the IC50 in data set [4] is 20.2 µM (active).

With `C=CCNC(=S)N/N=C/c1ccc(-c2ccc(OC)cc2)o1`, the EC50 in data set [7] is > 150 µM (inactive); in [10], > 38 µM (not active); in data set [8], 1.76 µM (active); in [9], > 60 µM (not active).
